The term EC50 denotes the concentration at which the effect is half-maximal. Broadly, the ED50 is the dose that gives a 50% effect, or the effect in half of the subjects. One may read the AUC(0-inf) as the area under the concentration-time curve extrapolated to infinity. As a reminder, the Cmax is the peak of the concentration-time curve. As a reminder, the half-life is how long it takes for the measured level to halve. Lower therefore signals fast loss.

These results are taken from ChEMBL document CHEMBL1681667, “Structure-activity relationship studies of sphingosine-1-phosphate receptor agonists with N-cinnamyl-β-alanine moiety” (Bioorg Med Chem Lett, 2011).

The target of data set [1] is Sphingosine 1-phosphate receptor 2 (Homo sapiens, UniProt O95136). Description: Agonist activity at human S1P2 receptor expressed in CHO cells assessed as intracellular calcium levels. Format: functional, cell-based. A general note: A change in cytosolic calcium serves as a functional read-out for many receptors and channels.
Chain of Sphingosine 1-phosphate receptor 2 (O95136 whole entry): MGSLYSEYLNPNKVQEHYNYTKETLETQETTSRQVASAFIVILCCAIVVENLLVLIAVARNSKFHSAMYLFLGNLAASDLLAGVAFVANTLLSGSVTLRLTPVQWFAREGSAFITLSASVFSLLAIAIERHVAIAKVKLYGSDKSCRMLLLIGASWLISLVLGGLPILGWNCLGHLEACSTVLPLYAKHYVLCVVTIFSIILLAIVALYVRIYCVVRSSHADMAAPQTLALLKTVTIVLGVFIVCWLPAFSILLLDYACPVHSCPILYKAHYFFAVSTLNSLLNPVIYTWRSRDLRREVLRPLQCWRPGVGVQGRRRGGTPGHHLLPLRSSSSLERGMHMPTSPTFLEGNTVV
Data set [2] has as its target Sphingosine 1-phosphate receptor 1 (Homo sapiens, UniProt P21453). Description: Agonist activity at human S1P1 receptor expressed in CHO cells assessed as intracellular calcium levels. Type of data set: functional, cell-based.
Data set [3] addresses Sphingosine 1-phosphate receptor 3 (Homo sapiens, UniProt Q99500). Description: Agonist activity at human S1P3 receptor expressed in CHO cells assessed as intracellular calcium levels. Type of data set: functional, cell-based.
Data set [4] addresses Sphingosine 1-phosphate receptor 5 (Homo sapiens, UniProt Q9H228). Description: Agonist activity at human S1P5 receptor expressed in CHO cells assessed as intracellular calcium levels. Type of data set: functional, cell-based.
Another data set deals with Mus musculus. In words: Immunomodulatory activity in po dosed mouse assessed as peripheral blood lymphocyte lowering activity after 4 hrs. Type of data set: functional.
A short description of data set [5]: AUC (infinity) in rat at 30 mg/kg, po. Format: ADME, organism-based. Further details: time infinity, dose 30 mg/kg, route oral. To be noted: plasma.
A short description of data set [6]: Cmax in rat at 30 mg/kg, po. Type of data set: ADME, organism-based. Further details: dose 30 mg/kg, route oral. The note with it: in vivo.
Data set [7] in a line: Half life in rat at 30 mg/kg, po. Format: ADME, organism-based. Further details: dose 30 mg/kg, route oral. To be noted: in vivo.

Chain of Sphingosine 1-phosphate receptor 1 (P21453 whole entry): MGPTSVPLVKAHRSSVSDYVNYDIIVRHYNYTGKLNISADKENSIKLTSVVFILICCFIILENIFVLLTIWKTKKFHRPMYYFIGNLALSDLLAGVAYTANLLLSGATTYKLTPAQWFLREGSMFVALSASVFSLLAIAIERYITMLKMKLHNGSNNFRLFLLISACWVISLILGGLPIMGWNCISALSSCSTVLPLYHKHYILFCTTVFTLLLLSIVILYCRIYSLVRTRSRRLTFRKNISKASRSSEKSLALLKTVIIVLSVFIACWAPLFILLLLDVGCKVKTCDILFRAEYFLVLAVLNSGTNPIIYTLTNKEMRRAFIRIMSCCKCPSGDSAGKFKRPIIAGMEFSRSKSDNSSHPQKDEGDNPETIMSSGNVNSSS
Chain of Sphingosine 1-phosphate receptor 3 (Q99500 whole entry): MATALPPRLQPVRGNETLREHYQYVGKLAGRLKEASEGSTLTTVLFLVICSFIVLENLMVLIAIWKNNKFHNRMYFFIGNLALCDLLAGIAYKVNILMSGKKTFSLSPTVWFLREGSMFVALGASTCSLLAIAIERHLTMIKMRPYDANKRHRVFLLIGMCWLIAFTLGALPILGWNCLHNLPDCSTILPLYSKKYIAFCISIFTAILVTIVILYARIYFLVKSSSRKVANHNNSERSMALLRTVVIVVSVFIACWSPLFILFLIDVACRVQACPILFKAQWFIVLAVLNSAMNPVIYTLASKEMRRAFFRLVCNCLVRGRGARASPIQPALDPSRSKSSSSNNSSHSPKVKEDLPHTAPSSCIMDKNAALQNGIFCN
Chain of Sphingosine 1-phosphate receptor 5 (Q9H228 whole entry): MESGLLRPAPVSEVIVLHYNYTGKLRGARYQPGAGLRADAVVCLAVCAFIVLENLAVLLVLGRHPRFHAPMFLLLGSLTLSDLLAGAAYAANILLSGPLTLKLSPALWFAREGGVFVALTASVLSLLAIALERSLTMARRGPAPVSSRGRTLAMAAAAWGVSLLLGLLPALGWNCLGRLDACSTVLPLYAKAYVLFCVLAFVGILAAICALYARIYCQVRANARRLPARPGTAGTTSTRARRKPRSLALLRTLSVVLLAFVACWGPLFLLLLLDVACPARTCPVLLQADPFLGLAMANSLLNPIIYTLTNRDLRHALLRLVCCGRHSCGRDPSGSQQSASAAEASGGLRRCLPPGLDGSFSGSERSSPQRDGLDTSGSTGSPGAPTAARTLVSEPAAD

As to `O=C(O)CCNCCCc1ccc(OCCCCCc2ccccc2)cc1`, the concentration giving a half-maximal response (EC50) in data set [1] was over 10000 nM; in data set [2], 160 nM; in data set [3], 4200 nM; in data set [4] it was 170 nM. The ED50 in the data set with Mus musculus stood at 26 mg/kg.

Consider `O=C(O)CCNCCCc1ccc(OCCCc2ccccc2)cc1`, for which, in data set [5], the AUC(0-inf) was found to be 174 µg·h/mL. Also, the results for the EC50 in data set [2] and in data set [3] were 2600 nM and 9000 nM, respectively. In addition, the Cmax in data set [6] amounted to 28000 ng/mL. Moreover, the half-life in data set [7] was 3.8 h.

On to `O=C(O)CCNCCCc1ccc(OCCCCc2ccccc2)cc1`, for which the EC50 was 1500 nM in data set [2] and over 10000 nM in data set [3].

With `O=C(O)CCNCCCc1ccc(OCCCCCCc2ccccc2)cc1`, the EC50 was 2700 nM in data set [2] and over 10000 nM in data set [3].

Turning to `O=C(O)CCNC/C=C/c1ccc(OCCCc2ccccc2)cc1`, the EC50 worked out at 70 nM in data set [2] and 3300 nM in data set [3]. In the data set on Mus musculus, the ED50 was 4.6 mg/kg.

For the compound `C/C(=C\c1ccc(OCCCc2ccccc2)cc1)CNCCC(=O)O`, the EC50 amounted to 33 nM in data set [2] and 1900 nM in data set [3].

For the compound `C/C(=C\CNCCC(=O)O)c1ccc(OCCCc2ccccc2)cc1`, the 50% effective concentration (EC50) in data set [2] was 21 nM; in data set [3], over 10000 nM. Moreover, the half-life in data set [7] is 7.4 h. In addition, in the data set with Mus musculus, the median effective dose (ED50) was 0.69 mg/kg.

With `C/C(=C/CNCCC(=O)O)c1ccc(OCCCc2ccccc2)cc1`, the EC50 in data set [2] was 930 nM; in data set [3] it was over 10000 nM.

With `O=C(O)CCN1CC=C(c2ccc(OCCCc3ccccc3)cc2)CC1`, the values for the 50% effective concentration (EC50) in data set [2] and in data set [3] were 45 nM and 1200 nM, respectively. Further, the ED50 with Mus musculus is 1.4 mg/kg.

`O=C(O)CCN1CCC(c2ccc(OCCCc3ccccc3)cc2)CC1`: the EC50 in data set [2] is 1600 nM; in data set [3] it was over 10000 nM.

As to `O=C(O)CCN1CCC/C(=C\c2ccc(OCCCc3ccccc3)cc2)C1`, the 50% effective concentration (EC50) in data set [2] was 1500 nM; in data set [3], over 10000 nM.
